# “And” between values parts separate entries of the source, which are not always exact repeats. Equal values may be shown once.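 All cell lines were grown in 96-well plates and treated with compound for 48 hours. GI50: concentration for 50% inhibition of growth.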 The source made the active and inactive calls. Cut-off read from the data, not from the text of the source: active = GI50 up to about 1.1 µM and inactive = higher.
# Tests used:
# Experiment in all cases: NCI tumour cell line growth inhibition, 48 h
# [1] = tested on: 786-0
# [2] = tested on: A498
# [3] = tested on: A549
# [4] = tested on: ACHN
# [5] = tested on: CAKI-1
# [6] = tested on: CCRF-CEM
# [7] = tested on: COLO 205
# [8] = tested on: DLD-1
# [9] = tested on: DMS-114
# [10] = tested on: DMS-273
# [11] = tested on: EKVX
# [12] = tested on: HCT-15
# [13] = tested on: HL-60
# [14] = tested on: HOP-18
# [15] = tested on: HOP-62
# [16] = tested on: HOP-92
# [17] = tested on: HT-29
# [18] = tested on: IGROV-1
# [19] = tested on: K562
# [20] = tested on: KM-20L2
# [21] = tested on: KM12
# [22] = tested on: LOX IMVI
# [23] = tested on: LXFL 529
# [24] = tested on: M14
# [25] = tested on: M19-MEL
# [26] = tested on: MOLT-4
# [27] = tested on: Malme-3M
# [28] = tested on: NCI-H23
# [29] = tested on: NCI-H460
# [30] = tested on: OVCAR-3
# [31] = tested on: OVCAR-4
# [32] = tested on: OVCAR-5
# [33] = tested on: OVCAR-8
# [34] = tested on: RPMI-8226
# [35] = tested on: RXF 393
# [36] = tested on: RXF 631
# [37] = tested on: SF-268
# [38] = tested on: SF-295
# [39] = tested on: SF-539
# [40] = tested on: SK-MEL-28
# [41] = tested on: SK-MEL-2
# [42] = tested on: SK-OV-3
# [43] = tested on: SN12C
# [44] = tested on: SNB-19
# [45] = tested on: SNB-75
# [46] = tested on: SNB-78
# [47] = tested on: SW-620
# [48] = tested on: TK-10
# [49] = tested on: U-251
# [50] = tested on: UACC-257
# [51] = tested on: UACC-62
# [52] = tested on: UO-31
# [53] = tested on: XF498
# [54] = tested on: HCC 2998
# [55] = tested on: HCT-116
# [56] = tested on: NCI-H522
# [57] = tested on: SK-MEL-5
compound,measurement,setting,value
O=S(O)CCCCSSCC(O)C(O)CSSCCCCS(=O)O (centres undefined),GI50,[1],> 100 µM (inactive)
same,GI50,[2],64.3 µM (inactive) and 61.9 µM (inactive)
same,GI50,[3],34.5 µM (inactive) and 27.1 µM (inactive)
same,GI50,[4],26.1 µM (inactive) and 22.1 µM (inactive)
same,GI50,[5],51.6 µM (inactive) and 56.9 µM (inactive)
same,GI50,[6],3.37 µM (inactive) and 3.21 µM (inactive)
same,GI50,[7],18.5 µM (inactive) and 14.6 µM (inactive)
same,GI50,[8],41.1 µM (inactive) and 68.4 µM (inactive)
same,GI50,[9],18.3 µM (inactive) and 14.6 µM (inactive)
same,GI50,[10],35 µM (inactive) and 19.7 µM (inactive)
same,GI50,[11],26.9 µM (inactive) and 33.4 µM (inactive)
same,GI50,[12],30.5 µM and 29.6 µM
same,GI50,[13],10.2 µM (inactive) and 10.6 µM (inactive)
same,GI50,[14],> 100 µM (inactive)
same,GI50,[15],> 100 µM (inactive)
same,GI50,[16],26.4 µM (inactive) and 39.7 µM (inactive)
same,GI50,[17],13.5 µM (inactive) and 9.16 µM (inactive)
same,GI50,[18],83.6 µM (inactive) and 44.5 µM (inactive)
same,GI50,[19],18.7 µM (inactive) and 12.6 µM (inactive)
same,GI50,[20],> 100 µM (inactive) and 50.6 µM (inactive)
same,GI50,[21],21.2 µM (inactive) and 15 µM (inactive)
same,GI50,[22],15.4 µM (inactive) and 10.8 µM (inactive)
same,GI50,[23],9.35 µM (inactive) and 12.5 µM (inactive)
same,GI50,[24],12.9 µM (inactive) and 9.08 µM (inactive)
same,GI50,[25],5.48 µM (inactive) and 3.37 µM (inactive)
same,GI50,[26],918 nM (active) and 697 nM (active)
same,GI50,[27],7.08 µM (inactive) and 7.24 µM (inactive)
same,GI50,[28],18.4 µM (inactive) and 29.2 µM (inactive)
same,GI50,[29],52.4 µM (inactive) and 40.4 µM (inactive)
same,GI50,[30],11.4 µM (inactive) and 12.4 µM (inactive)
same,GI50,[31],10.7 µM (inactive) and 5.66 µM (inactive)
same,GI50,[32],> 100 µM (inactive) and 74.8 µM (inactive)
same,GI50,[33],30.1 µM (inactive) and 22.2 µM (inactive)
same,GI50,[34],13.5 µM (inactive) and 11.8 µM (inactive)
same,GI50,[35],22.3 µM (inactive) and 14.7 µM (inactive)
same,GI50,[36],22.2 µM (inactive) and 29.2 µM (inactive)
same,GI50,[37],17.5 µM (inactive) and 12.2 µM (inactive)
same,GI50,[38],15.5 µM (inactive) and 12.4 µM (inactive)
same,GI50,[39],17.6 µM (inactive) and 23 µM (inactive)
same,GI50,[40],21.6 µM (inactive) and 14.9 µM (inactive)
same,GI50,[41],17.4 µM (inactive) and 15 µM (inactive)
same,GI50,[42],> 100 µM (inactive)
same,GI50,[43],40.5 µM (inactive) and 34.9 µM (inactive)
same,GI50,[44],50 µM (inactive) and 55.6 µM (inactive)
same,GI50,[45],12 µM (inactive) and 17.3 µM (inactive)
same,GI50,[46],18.2 µM (inactive) and 20.9 µM (inactive)
same,GI50,[47],21.5 µM (inactive) and 19.5 µM (inactive)
same,GI50,[48],68.2 µM (inactive) and 53.8 µM (inactive)
same,GI50,[49],71.1 µM (inactive) and 50.6 µM (inactive)
same,GI50,[50],8.39 µM (inactive) and 4.7 µM (inactive)
same,GI50,[51],12.9 µM (inactive) and 8.73 µM (inactive)
same,GI50,[52],16.7 µM (inactive) and 9.33 µM (inactive)
same,GI50,[53],12.4 µM (inactive) and 19 µM (inactive)
O=P(O)(OCC(O)O)OCC(O)O,GI50,[1],> 100 µM (inactive)
same,GI50,[2],> 100 µM (inactive)
same,GI50,[3],> 100 µM (inactive)
same,GI50,[4],> 100 µM (inactive)
same,GI50,[6],> 100 µM (inactive)
same,GI50,[7],> 100 µM (inactive)
same,GI50,[8],> 100 µM (inactive)
same,GI50,[9],> 100 µM (inactive)
same,GI50,[10],> 100 µM (inactive)
same,GI50,[11],> 100 µM (inactive)
same,GI50,[54],> 100 µM (inactive)
same,GI50,[55],> 100 µM (inactive)
same,GI50,[13],> 100 µM (inactive)
same,GI50,[14],41.4 µM (inactive)
same,GI50,[15],> 100 µM (inactive)
same,GI50,[16],> 100 µM (inactive)
same,GI50,[17],> 100 µM (inactive)
same,GI50,[18],> 100 µM (inactive)
same,GI50,[19],> 100 µM (inactive)
same,GI50,[20],> 100 µM (inactive)
same,GI50,[21],> 100 µM (inactive)
same,GI50,[22],> 100 µM (inactive)
same,GI50,[23],> 100 µM (inactive)
same,GI50,[25],> 100 µM (inactive)
same,GI50,[26],> 100 µM (inactive)
same,GI50,[27],> 100 µM (inactive)
same,GI50,[28],> 100 µM (inactive)
same,GI50,[29],> 100 µM (inactive)
same,GI50,[56],> 100 µM (inactive)
same,GI50,[30],> 100 µM (inactive)
same,GI50,[32],> 100 µM (inactive)
same,GI50,[33],> 100 µM (inactive)
same,GI50,[34],> 100 µM (inactive)
same,GI50,[35],> 100 µM (inactive)
same,GI50,[36],> 100 µM (inactive)
same,GI50,[37],> 100 µM (inactive)
same,GI50,[38],> 100 µM (inactive)
same,GI50,[39],> 100 µM (inactive)
same,GI50,[40],> 100 µM (inactive)
same,GI50,[41],> 100 µM (inactive)
same,GI50,[57],> 100 µM (inactive)
same,GI50,[42],> 100 µM (inactive)
same,GI50,[44],> 100 µM (inactive)
same,GI50,[45],> 100 µM (inactive)
same,GI50,[46],> 100 µM (inactive)
same,GI50,[47],> 100 µM (inactive)
same,GI50,[48],> 100 µM (inactive)
same,GI50,[49],> 100 µM (inactive)
same,GI50,[50],> 100 µM (inactive)
same,GI50,[52],> 100 µM (inactive)
same,GI50,[53],> 100 µM (inactive)

# From ChEMBL document CHEMBL1201862, “PubChem BioAssay data set” (2004)
